Measured values as given in patent publication US11224627B2, “Method for culturing cells of Acrochaetium moniliforme red algae, method for obtaining an extract of the biomass thereof, and use of same in cosmetics” (SOCIETE D'EXPLOITATION DE PRODUITS POUR LES INDUSTRIES …, priority 2016, dated 2022).
Marks after values point to notes of the source that are not given here.

Experiments:
[1] = test system: Human fibroblasts of the dermal follicular papilla; assay: Viability measured using WST-8 reagent; format: cell-based; conditions: 2 μM
5-α-reductase enzyme = assay: Production of dihydrotestosterone (DHT) from testosterone in a cellular model, revealing 5-α-reductase activity; format: cell-based, human; conditions: 2 μM
Procedure: This model is a cellular model, that is more robust than models on purified enzyme.
Human fibroblasts of the dermal follicular papilla (person) were seeded into collagen-coated culture plates in the presence of a specific growth medium. After three days, they were pretreated for 24 hours with the positive reference [Finasteride (F) at 2 μM and 1 μM] and each of the algal extracts to be tested (Table 2). The fibroblasts were then stimulated with testosterone at 0.5 μM before undergoing a post-treatment for 24 hours. Each test was carried out in sextuplicate.
The viability was measured using a WST-8 reagent and the conversion of the testosterone was then evaluated by measuring the intracellular concentration of (DHT). The viability was expressed relative to that of the control without testosterone (control T0). The amount of (DHT) was standardized relative to the viability results and then related to the control condition with testosterone (0.5 μM) control (T1) in order to calculate a percentage effect, and also related to the control conditions without testosterone in order to calculate a percentage protection.

SMILES: CC(C)(C)NC(=O)[C@H]1CC[C@H]2[C@@H]3CC[C@H]4NC(=O)C=C[C@]4(C)[C@H]3CC[C@]12C [F, Finasteride]
- WST-8 OD (AU) ([1]; fibroblasts stimulated with testosterone 0.5 μM, 24 h pre- and 24 h post-treatment): 2.19 +/− 0.27^(a) AU
- WST-8 Viability ([1]; relative to control without testosterone (T0)): 93%^(a)
- DHT Standardized concentration (pg/ml/AU) (5-α-reductase enzyme; DHT standardized relative to viability (WST-8 OD)): 5.68 +/− 0.91^(a) pg/ml/AU
- DHT Concentration (pg/ml) (5-α-reductase enzyme; intracellular DHT, testosterone 0.5 μM): 12.38 +/− 2.35^(a) pg/ml
- DHT Restoration (5-α-reductase enzyme; related to control without testosterone (T0 = 100%, T1 = 0%)): 46%*
- DHT Effect (5-α-reductase enzyme; relative to control with testosterone 0.5 μM (T1)): −28%*
